Source: publication PMC8513920 (Chemical Science, 2021)
In brackets after ≈: the same amount, converted by molar mass.

Test: High-throughput Equilibrium Solubility measurement
Assay type: physicochemical
Conditions: phosphate buffer, pH 6.8

## N#Cc1c[nH]c2c(C(=O)N3CCN(CCc4ccc(F)cc4)CC3)cccc12 [compound 3, pruvanserin]
  solubility: 17 µM (≈ 6.4 µg/mL)
